Legend:
[1] = test system: rat primary hippocampal neurons injured with Aβ 1-42; assay: Number of synapses (PSD95/SYN overlap) in primary culture of hippocampal neurons injured with Aβ 1-42; format: cell-based; conditions: from 5 nM to 1 μM; Aβ 1-42 injured hippocampal neurons; Example 1
Protocol: Rat hippocampal neurons were cultured as described by Callizot et al. (2013) J. Neurosci. Res. 91706-716. Pregnant female rats of 17 days gestation (Rats Wistar; Janvier Labs France) were killed using a deep anesthesia with CO2 chamber followed by a cervical dislocation. Then, fetuses were removed from the uterus and immediately placed in ice-cold L15 Leibovitz medium with a 2% penicillin (10,000 U/ml) and streptomycin (10 mg/ml) solution (PS) and 1% bovine serum albumin (BSA). Hippocampal neurons were treated for 20 min at 37° C. with a trypsin-EDTA solution at a final concentration of 0.05% trypsin and 0.02% EDTA. The dissociation was stopped by adding Dulbecco's modified Eagle's medium (DMEM) with 4.5 g/l of glucose, containing DNAse I grade 11 (final concentration 0.5 mg/ml) and 10% fetal calf serum (FCS). Cells were mechanically dissociated by three forced passages through the tip of a 10-ml pipette and then centrifuged at 515×g for 10 min at 4° C. The supernatant was discarded, and the pellet was resuspended in a defined culture medium consisting of Neurobasal medium with a 2% solution of B27 supplement, 2 mmol/l of L-glutamine, 2% of PS solution, and 10 ng/ml of brain-derived neurotrophic factor (BDNF). Viable cells were counted in a Neubauer cytometer, using the trypan blue exclusion test. […] The medium was changed every 2 days.
The hippocampal neurons were exposed with Aβ solutions (see below) after 17 days of culture. The Aβ1-42 preparation was done following the procedure described by Callizot et al. (2013) J. Neurosci. Res. 91706-716. Briefly, Aβ1-42 peptide was dissolved in the defined culture medium mentioned above, at an initial concentration of 40 μM. This solution was gently agitated for 3 days at 37° C. in the dark and immediately used after being properly diluted in culture medium to the concentrations used (20 μM (plate 1) or 2.5 μM (plate 2) corresponding to 2 μM or 0.25 μM of oligomers (AβO) respectively).
Donecopride fumarate was solved in culture medium and preincubated 1 h before Aβ application. Aβ1-42 preparation was added to a final concentration of 20 or 2.5 μM (=2 μM or 0.25 μM of AβO, evaluated by automatic Western Blot) diluted in control medium in presence of Donecopride.
Donecopride fumarate (Donecopride) was tested on one culture in a 96 well plate (6 wells per conditions). The compound was preincubated one hour before […] application. The following conditions were assessed:
After permeabilization with 0.1% of saponin, cells were incubated for 2 h with:
a) mouse monoclonal antibody anti post synaptic density 95 kDa (PSD95) at a dilution of 1/100 in PBS containing 1% fetal calf serum and 0.1% of saponin.
b) Rabbit polyclonal antibody anti-synaptophysin (SYN) at the dilution of 1/100 in PBS containing 1% fetal calf serum and 0.1% of saponin.
For each condition, 40 pictures per well were taken using ImageXpress (Molecular Devices) with 40× magnification. All images were taken with the same acquisition parameters.
Synapses evaluation was performed automatically by using Custom module editor (Molecular Devices).
Total number of synapses (overlapping between PSD95/SYN).
To assess the formation of synapses, the distribution of PSD-95, a post-synaptic marker, and synaptophysin, a pre-synaptic marker, was studied. A structure positive for both PSD-95 and synaptophysin staining was considered as a synapse.
Rat hippocampal neurons were cultured as described by Callizot et al. (2013) J. Neurosci. Res. 91:706-716.

5XFAD mice [2] = assay: Novel object recognition test in chronically treated 5XFAD mice; format: in vivo, mouse; conditions: 5XFAD females, 1 mg/kg twice a week for 3 months
Protocol: (§1) 5XFAD mice received chronic treatments with drugs or vehicle according to 2 different protocols. In each experiment, drugs or vehicle solution were administered i.p. twice a week (1 mg/kg). In “Protocol 1”, mice (n=6-7 mice per group) were treated with compounds for two months, from 2 to 4 months of age. In “Protocol 2”, mice (n=7) were treated with compounds for three months, from 1 month to 4 months of age. At the end of each protocol, mice were anesthetized with a mixture of 100 mg/kg ketamine and 10 mg/kg xylazine in saline solution and perfused transcardially with PBS. Brains were quickly isolated on ice, the olfactory bulbs and cerebellum removed and the two hemispheres divided. One hemisphere was frozen on dry ice and stored at −80° C. for biochemical analysis, while the other was post-fixed in 4% PFA for immunohistochemistry (IHC).
(§2) 28 female 5XFAD mice (C57BL/6J genetic background) were used in this study. Mice received vehicle or compounds (1 mg/kg) i.p., twice a week for three months, from 1 to 4 months of age.

5XFAD mice [3] = assay: Aβ42 concentration in cerebrospinal fluid of chronically treated 5XFAD mice; format: in vivo, mouse; conditions: 1 mg/kg twice a week for 3 months, versus controls
Protocol: as §1, §2

5XFAD mice [4] = assay: Amyloid plaque number (thioflavin T staining) in brain sections of 5XFAD mice; format: in vivo, mouse; conditions: 1 mg/kg twice a week for 3 months, versus controls
Protocol: as §1
Thirty-micrometer-thick sections were cut using a vibratome (Microm HM 650V, Thermo Scientific, Saint Herblain, France) and stored in cryoprotectant medium at −20° C. […]
Images were acquired with an Axiolmager Z1 microscope (Carl Zeiss S.A.S., Marly le Roi, France). […] GFAP expression was quantified using Image J software and results are expressed as area fractions. […]

5XFAD mice [5] = assay: Astrogliosis (GFAP staining) in brain sections of 5XFAD mice; format: in vivo, mouse; conditions: 1 mg/kg twice a week for 3 months, versus controls
Protocol: as §1
Thirty-micrometer-thick sections were cut using a vibratome (Microm HM 650V, Thermo Scientific, Saint Herblain, France) and stored in cryoprotectant medium at −20° C. For the labeling of amyloid plaques, free-floating tissue sections of frontal cortex, hippocampus and entorhinal cortex (coordinates from the bregma: frontal cortex=1.98 mm, hippocampus=−1.94 mm, entorhinal cortex=−3.08 mm) were extensively washed in PBS and then incubated in blocking solution (PBS; 3% BSA; 0.1% Triton X-100) for 1 h. Sections were stained with Hoechst dye (1:1000, Life Technologies, Saint Aubin, France) for 15 minutes to detect cell nuclei and then with freshly prepared thioflavin T solution (#T3516-5G, Sigma-Aldrich) (final concentration: 0.01 mg/ml in blocking buffer) for 15 minutes. After washing in 70% ethanol for 5 minutes, samples were mounted on poly-lysine slides with coverslips. For GFAP (glial fibrillary acidic protein) staining, free-floating brain sections were blocked as before and incubated with polyclonal rabbit anti-GFAP (1:1000, Z0334, Dako, Les Ullis, France) at 4° C. overnight. After thioflavin T staining and washing with 70% ethanol, the secondary Alexafluor 594 goat anti-rabbit antibody (1:1000, A11012, Life Technologies) was added for 2 h. PBS washes and mounting were performed as described before.
Images were acquired with an Axiolmager Z1 microscope (Carl Zeiss S.A.S., Marly le Roi, France). Analysis of thioflavin T staining was performed blindly and data are presented as the mean number of particles per mm^2 in two to three tissue sections from the same brain area/animal (Image J software). GFAP expression was quantified using Image J software and results are expressed as area fractions.
as §2

Compound: COc1cc(N)c(Cl)cc1C(=O)CCC1CCN(CC2CCCCC2)CC1 [Donecopride]
- Preservation of the number of synapses [1]: preserve the number of synapses, on a dose dependent manner
- Total exploration time during the training session (NOR test) (5XFAD mice [2]): did not differ significantly
- Recognition memory: time exploring novel versus familiar object (NOR test) (5XFAD mice [2]; 24 h interval between training and test): able to prevent memory alteration
- Aβ42 concentration in cerebrospinal fluid (CSF) (5XFAD mice [3]): not significantly different compared to controls
- Amyloid plaque number in hippocampus (5XFAD mice [4]): not significantly different compared to controls
- GFAP staining in frontal cortex (5XFAD mice [5]): not significantly different compared to controls
- GFAP staining in hippocampus (5XFAD mice [5]): not significantly different compared to controls

From patent publication US20210338647A1, “Combination of Acetylcholinesterase Inhibitor and 5-HT4 Receptor Agonist As Neuroprotective Agent In the Treatment of Neurodegenerative Diseases” (UNIVERSITE DE CAEN NORMANDIE, priority 2018, published 2021)
